Structures can show the parent of a compound that is named as a salt.

The target of this experiment is T1, Human Polθ polymerase domain (aa1820-2590) (Homo sapiens, UniProt O75417).
T1 construct: Human Polθ polymerase domain (aa1820-2590) was expressed in E. Coli; made in house; host or cells: E. coli
T1 sequence (O75417 1820-2590): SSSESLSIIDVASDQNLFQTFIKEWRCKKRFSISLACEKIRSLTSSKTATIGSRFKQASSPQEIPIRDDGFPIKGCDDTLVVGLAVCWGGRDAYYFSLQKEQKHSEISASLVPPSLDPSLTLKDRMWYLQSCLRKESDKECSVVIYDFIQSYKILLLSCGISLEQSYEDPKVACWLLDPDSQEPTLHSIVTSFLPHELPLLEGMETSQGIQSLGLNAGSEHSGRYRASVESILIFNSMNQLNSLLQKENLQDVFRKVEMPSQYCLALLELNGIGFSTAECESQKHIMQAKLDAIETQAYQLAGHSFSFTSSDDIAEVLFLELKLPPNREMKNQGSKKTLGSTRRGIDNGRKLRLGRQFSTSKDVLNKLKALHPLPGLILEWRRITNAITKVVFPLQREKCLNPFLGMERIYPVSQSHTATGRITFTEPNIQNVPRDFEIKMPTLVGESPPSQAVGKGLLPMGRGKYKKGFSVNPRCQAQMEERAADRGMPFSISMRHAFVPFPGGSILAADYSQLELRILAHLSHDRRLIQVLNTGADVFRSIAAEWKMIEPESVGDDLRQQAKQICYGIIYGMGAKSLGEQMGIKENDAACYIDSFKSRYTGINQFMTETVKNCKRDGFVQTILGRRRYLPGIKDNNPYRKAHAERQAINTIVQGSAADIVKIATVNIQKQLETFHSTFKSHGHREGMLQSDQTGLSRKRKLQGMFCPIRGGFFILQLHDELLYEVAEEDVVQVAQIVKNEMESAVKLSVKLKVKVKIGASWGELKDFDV
The experiment can be described thus: Polθ Polymerase Domain WT KI Assay (PicoGreen). The format is biochemical. The settings on record: 100 nM DNA substrate, 0.156 nM Polθ, initial rates vs inhibitor concentration. In short, it runs like this:
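E. coli-expressed human Polθ polymerase domain (aa1820-2590) on annealed DNA II Short/Long primer-template (1.2:1), in 25 mM Tris pH 7.5, NaCl, 5% glycerol, 0.01% Triton X-100, 0.1 mg/ml BSA, 1 mM DTT, 1% DMSO. EDTA-quenched timepoints to 180 min, PicoGreen fluorescence. Initial rates vs inhibitor concentration fitted four-parameter for KI.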
As to `Cc1cc(C(F)(F)F)cc(N2C(=O)C[C@@H]3CN(CCCO)c4c(F)cccc4N(C)C(=O)[C@H]32)n1` [Example 127, (3aR,11aS)-6-Fluoro-5-(3-hydroxypropyl)-10-methyl-1-(6-methyl-4-(trifluoromethyl)pyridin-2-yl)-1,3a,4,5,10,11a-hexahydro-2H-benzo[b]pyrrolo[2,3-f][1,4]diazocine-2,11(3H)-dione], the inhibition constant (Ki) (usually a measure of affinity in units of concentration, obtained from inhibition or displacement) stood at 7.21 nM.

`Cc1cc(C(F)(F)F)cc(N2C(=O)C[C@@H]3CN(CCCN(C)C)c4c(C)cccc4N(C)C(=O)[C@H]32)n1` [Example 128, (3aR,11aS)-5-(3-(Dimethylamino)propyl)-6,10-dimethyl-1-(6-methyl-4-(trifluoromethyl)pyridin-2-yl)-1,3a,4,5,10,11a-hexahydro-2H-benzo[b]pyrrolo[2,3-f][1,4]diazocine-2,11(3H)-dione] returned an inhibitory constant (Ki) of 1.39 nM. The same measure for `Cc1cc(C(F)(F)F)cc(N2C(=O)C[C@@H]3CN(CCCN4CCN(C)CC4)c4c(Cl)cccc4N(C)C(=O)[C@H]32)n1` [Example 129, (3aR,11aS)-6-Chloro-10-methyl-1-(6-methyl-4-(trifluoromethyl)pyridin-2-yl)-5-(3-(4-methylpiperazin-1-yl)propyl)-1,3a,4,5,10,11a-hexahydro-2H-benzo[b]pyrrolo[2,3-f][1,4]diazocine-2,11(3H)-dione]: 1.23 nM; for `Cc1cc(C(F)(F)F)cc(N2C(=O)C[C@@H]3CN(c4ccccn4)c4c(F)cccc4N(C)C(=O)[C@H]32)n1` [Example 134, (3aR,11aS)-6-Fluoro-10-methyl-1-(6-methyl-4-(trifluoromethyl)pyridin-2-yl)-5-(pyridin-2-yl)-1,3a,4,5,10,11a-hexahydro-2H-benzo[b]pyrrolo[2,3-f][1,4]diazocine-2,11(3H)-dione]: 104 nM.

Compound `Cc1cc(C(F)(F)F)cc(N2C(=O)C[C@@H]3CN(CCCN(C)C)c4c(Cl)cccc4N(C)C(=O)[C@H]32)n1` [Example 135, (3aR,11aS)-6-Chloro-5-(3-(dimethylamino)propyl)-10-methyl-1-(6-methyl-4-(trifluoromethyl)pyridin-2-yl)-1,3a,4,5,10,11a-hexahydro-2H-benzo[b]pyrrolo[2,3-f][1,4]diazocine-2,11(3H)-dione] gave a Ki of 3.49 nM. The same measure for `Cc1cc(C(F)(F)F)cc(N2C(=O)C[C@@H]3CN(CCCN4CCOCC4)c4c(Cl)cccc4N(C)C(=O)[C@H]32)n1` [Example 136, (3aR,11aS)-6-Chloro-10-methyl-1-(6-methyl-4-(trifluoromethyl)pyridin-2-yl)-5-(3-morpholinopropyl)-1,3a,4,5,10,11a-hexahydro-2H-benzo[b]pyrrolo[2,3-f][1,4]diazocine-2,11(3H)-dione hydrochloride]: 0.786 nM. The same measure for `Cc1cc(C(F)(F)F)cc(N2C(=O)C[C@@H]3CN(CCCN4CCOCC4)c4c(F)cccc4N(C)C(=O)[C@H]32)n1` [Example 137, (3aR,11aS)-6-Fluoro-10-methyl-1-(6-methyl-4-(trifluoromethyl)pyridin-2-yl)-5-(3-morpholinopropyl)-1,3a,4,5,10,11a-hexahydro-2H-benzo[b]pyrrolo[2,3-f][1,4]diazocine-2,11(3H)-dione]: 10.1 nM; for `Cc1cc(C(F)(F)F)cc(N2C(=O)C[C@@H]3CN(c4cccnc4)c4c(F)cccc4N(C)C(=O)[C@H]32)n1` [Example 138, (3aR,11aS)-6-Fluoro-10-methyl-1-(6-methyl-4-(trifluoromethyl)pyridin-2-yl)-5-(pyridin-3-yl)-1,3a,4,5,10,11a-hexahydro-2H-benzo[b]pyrrolo[2,3-f][1,4]diazocine-2,11(3H)-dione]: 645 nM; for `Cc1cc(C(F)(F)F)cc(N2C(=O)C[C@@H]3CN(c4ccccc4)c4c(F)cccc4N(C)C(=O)[C@H]32)n1` [Example 139, (3aR,11aS)-6-Fluoro-10-methyl-1-(6-methyl-4-(trifluoromethyl)pyridin-2-yl)-5-phenyl-1,3a,4,5,10,11a-hexahydro-2H-benzo[b]pyrrolo[2,3-f][1,4]diazocine-2,11(3H)-dione]: 56.8 nM. The same measure for `COc1ccnc(N2C[C@H]3CC(=O)N(c4cc(C(F)(F)F)cc(C)n4)[C@@H]3C(=O)N(C)c3cccc(F)c32)c1` [Example 140, (3aR,11aS)-6-Fluoro-5-(4-methoxypyridin-2-yl)-10-methyl-1-(6-methyl-4-(trifluoromethyl)pyridin-2-yl)-1,3a,4,5,10,11a-hexahydro-2H-benzo[b]pyrrolo[2,3-f][1,4]diazocine-2,11(3H)-dione]: 79.6 nM.

In turn, `COc1cccc(N2C[C@H]3CC(=O)N(c4cc(C(F)(F)F)cc(C)n4)[C@@H]3C(=O)N(C)c3cccc(F)c32)n1` [Example 141, (3aR,11aS)-6-Fluoro-5-(6-methoxypyridin-2-yl)-10-methyl-1-(6-methyl-4-(trifluoromethyl)pyridin-2-yl)-1,3a,4,5,10,11a-hexahydro-2H-benzo[b]pyrrolo[2,3-f][1,4]diazocine-2,11(3H)-dione] showed a Ki of 86.3 nM. In the case of `COc1cc(N2C[C@H]3CC(=O)N(c4cc(C(F)(F)F)cc(C)n4)[C@@H]3C(=O)N(C)c3cccc(F)c32)ccn1` [Example 142, (3aR,11aS)-6-Fluoro-5-(2-methoxypyridin-4-yl)-10-methyl-1-(6-methyl-4-(trifluoromethyl)pyridin-2-yl)-1,3a,4,5,10,11a-hexahydro-2H-benzo[b]pyrrolo[2,3-f][1,4]diazocine-2,11(3H)-dione], the affinity, expressed as Ki, was 461 nM. The same measure for `Cc1cc(C(F)(F)F)cc(N2C(=O)C[C@@H]3CN(c4ccc5ccn(C)c5n4)c4c(F)cccc4N(C)C(=O)[C@H]32)n1` [Example 143, (3aR,11aS)-6-Fluoro-10-methyl-5-(1-methyl-1H-pyrrolo[2,3-b]pyridin-6-yl)-1-(6-methyl-4-(trifluoromethyl)pyridin-2-yl)-1,3a,4,5,10,11a-hexahydro-2H-benzo[b]pyrrolo[2,3-f][1,4]diazocine-2,11(3H)-dione]: 97 nM.

In the case of `Cc1cc(C(F)(F)F)cc(N2C(=O)C[C@@H]3CN(c4ccc5ncn(C)c5c4)c4c(F)cccc4N(C)C(=O)[C@H]32)n1` [Example 144, (3aR,11aS)-6-Fluoro-10-methyl-5-(1-methyl-1H-benzo[d]imidazol-6-yl)-1-(6-methyl-4-(trifluoromethyl)pyridin-2-yl)-1,3a,4,5,10,11a-hexahydro-2H-benzo[b]pyrrolo[2,3-f][1,4]diazocine-2,11(3H)-dione], the Ki came out at 28.8 nM. The same measure for `Cc1cc(C(F)(F)F)cc(N2C(=O)C[C@@H]3CN(c4ccccn4)c4c(Cl)cccc4N(C)C(=O)[C@H]32)n1` [Example 145, (3aR,11aS)-6-Chloro-10-methyl-1-(6-methyl-4-(trifluoromethyl)pyridin-2-yl)-5-(pyridin-2-yl)-1,3a,4,5,10,11a-hexahydro-2H-benzo[b]pyrrolo[2,3-f][1,4]diazocine-2,11(3H)-dione]: 30.5 nM. To `CCN1C(=O)[C@@H]2[C@H](CC(=O)N2c2cc(C(F)(F)F)cc(C)n2)CN(CCN2CCN(C)CC2)c2c(Cl)cccc21` [Example 146, (3aR,11aS)-6-Chloro-10-ethyl-1-(6-methyl-4-(trifluoromethyl)pyridin-2-yl)-5-(2-(4-methylpiperazin-1-yl)ethyl)-1,3a,4,5,10,11a-hexahydro-2H-benzo[b]pyrrolo[2,3-f][1,4]diazocine-2,11(3H)-dione] belongs 7.01 nM; to `Cc1cc(C(F)(F)F)cc(N2C(=O)C[C@@H]3CN(CCN4CCOCC4)c4c(C)cccc4NC(=O)[C@H]32)n1` [Example 147, (3aR,11aS)-6-Methyl-1-(6-methyl-4-(trifluoromethyl)pyridin-2-yl)-5-(2-morpholinoethyl)-1,3a,4,5,10,11a-hexahydro-2H-benzo[b]pyrrolo[2,3-f][1,4]diazocine-2,11(3H)-dione], 3.62 nM; to `Cc1cc(C(F)(F)F)cc(N2C(=O)C[C@@H]3CN(CCN4CCNCC4)c4c(C)cccc4NC(=O)[C@H]32)n1` [Example 148, (3aR,11aS)-6-Methyl-1-(6-methyl-4-(trifluoromethyl)pyridin-2-yl)-5-(2-(piperazin-1-yl)ethyl)-1,3a,4,5,10,11a-hexahydro-2H-benzo[b]pyrrolo[2,3-f][1,4]diazocine-2,11(3H)-dione], 3.04 nM.

In turn, `Cc1cc(C(F)(F)F)cc(N2C(=O)C[C@@H]3CN(CCN4CCN(C)CC4)c4c(C)cccc4NC(=O)[C@H]32)n1` [Example 149, (3aR,11aS)-6-Methyl-1-(6-methyl-4-(trifluoromethyl)pyridin-2-yl)-5-(2-(4-methylpiperazin-1-yl)ethyl)-1,3a,4,5,10,11a-hexahydro-2H-benzo[b]pyrrolo[2,3-f][1,4]diazocine-2,11(3H)-dione] displayed an inhibition constant Ki of 3.25 nM.

Source of the values: patent US20260124214A1, “HETEROCYCLIC COMPOUNDS FOR USE IN THE TREATMENT OF CANCER” (ARTIOS PHARMA LIMITED, priority 2021, published 2026).
